Test results reported in patent publication US20090325877A1, “Combination Product of Receptor Tyrosine Kinase Inhibitor and Fatty Acid Synthase Inhibitor for Treating Cancer” (Wyeth, priority 2008, published 2009).
Read-outs that look alike come from different tables or passages of the source.

Experiments:
[1] = system: A2780 ovarian cancer cells; test: Formazan dye (MTT) in-vitro cell growth assay, A2780; assay type: cell-based; conditions: for in vitro growth inhibition (in words): A2780, MTT assay, single drug
Description: Effect of FAS and ErbB inhibition on A2780 ovarian cancer cells (OCC). […] Cells were grown for three days in the presence of vehicle (0.1% DMSO) or synthetic inhibitor before cell number was estimated. Data in the charts represent means +/−SD of triplicate measurements.
(§1) Cells were plated at 0.5−5×10^3/well in 96-well plates. After adhesion, media ±drugs alone or in combination were added. Cell numbers were estimated after 3-5 days by using a colorimetric formazan dye assay (Biomedica, Vienna, Austria). Results (mean±SD, n=3) were expressed in percent of untreated (solvent) control. Statistical analysis of data from drug combination treatment experiments was performed using one-factorial ANOVA followed by Scheffe-test.
(§2) Yellow MTT (3-(4,5-Dimethylthiazol-2-yl)-2,5-diphenyltetrazolium bromide, a tetrazole) is reduced to purple formazan in the mitochondria of living cells (see Mosmann, T., J. Immunol. Methods, 65(1-2): 55-63, 1983).

[2] = system: SKOV3 ovarian cancer cells; test: Formazan dye (MTT) in-vitro cell growth assay, SKOV3; assay type: cell-based; conditions: for in vitro growth inhibition (in words): MTT assay, single drug
Description: as §1, with “Results (mean±SD, n=3) were expressed in percent of untreated (solvent) control.” left out
as §2

FASN mRNA [3] = test: FASN mRNA expression by qRT-PCR in A2780 cells; assay type: cell-based, human; conditions: b102: within three days, pelitinib at doses as low as 3 μM
From the text: (§3) RNA was extracted from the cells using TRI-REAGENT™ (Molecular Research Center, Cincinnati, Ohio) and subjected to reverse transcription—polymerase chain reaction (“RT-PCR”) using the TITAN ONE TUBE RT-PCR KIT™ system (Hoffmann-La Roche). Primers were: EGFR: 5′-[…]-3′ (SEQ ID NO:1) (forward, E1S) 5′-[…]-3′ (SEQ ID NO:2) (reverse, E1A); ErbB-2: 5′-[…]-3′ (SEQ ID NO:3) (forward, E2S2), 5′-[…]-3′ (SEQ ID NO:4) (reverse, E2A2); GAPDH: 5′-[…]-3′ (SEQ ID NO:5) (forward, GAPDH3S), 5′-[…]-3′ (SEQ ID NO:6) (reverse, GAPDH3A). Conditions for reverse transcription and amplification of the EGFR coding sequence were: 50° C., 30 minutes; 94° C., 2 minutes; 10 cycles (94° C., 30 seconds; 64.9° C., 30 seconds; 68° C., 90 seconds); 30 cycles (94° C., 30 seconds; 64.9° C., 30 seconds; 68° C., 90 seconds +5 seconds autoextension) and 68° C., 7 minutes. Conditions for ErbB2 and GAPDH were: 50° C., 30 minutes; 94° C., 2 minutes; 10 cycles (94° C., 30 seconds; 51° C., 30 seconds; 68° C., 45 seconds); 25 cycles (94° C., 30 seconds; 51° C., 30 seconds; 68° C., 45 seconds +5 seconds autoextension) and 68° C., 7 minutes. DNA products had the following sizes: EGFR: 1452 bp, ErbB2: 900 bp, GAPDH: 488 bp. Fragments were electrophoresed and stained with ethidium bromide.
(§4) Quantitative RT-PCR (“qRT-PCR”) was performed in the ABI PRISM 7000™ Sequence Detector (Applied Biosystems, Foster City, Calif.) using human EGFR, ErbB2, and FASN TaqMan® Gene Expression Assay systems (Applied Biosystems; Assay IDs: Hs00193306_m1, Hs00170433_m1, Hs00188012_m1) according to the manufacturer's instructions. β-actin and GAPDH (VIC™ and FAM labeled pre-developed TaqMan® Assay reagents, Applied Biosystems) were used as endogenous controls. EGFR, ErbB2, and FASN mRNA expression were calculated as described previously (Grunt, ibid).

FASN protein [4] = test: FASN protein level by Western blotting in A2780 cells; assay type: cell-based; conditions: b102: within three days, pelitinib at doses as low as 3 μM
EGFR mRNA = EGFR mRNA by RT-PCR and qRT-PCR in A2780 cells; assay type: cell-based, human
Description: RNA was extracted from the cells using TRI-REAGENT™ (Molecular Research Center, Cincinnati, Ohio) and subjected to reverse transcription—polymerase chain reaction (“RT-PCR”) using the TITAN ONE TUBE RT-PCR KIT™ system (Hoffmann-La Roche). […] Conditions for ErbB2 and GAPDH were: 50° C., 30 minutes; 94° C., 2 minutes; 10 cycles (94° C., 30 seconds; 51° C., 30 seconds; 68° C., 45 seconds); 25 cycles (94° C., 30 seconds; 51° C., 30 seconds; 68° C., 45 seconds +5 seconds autoextension) and 68° C., 7 minutes. […] Fragments were electrophoresed and stained with ethidium bromide.
as §4

EGFR protein = EGFR protein and tyrosine phosphorylation by Western blot in A2780 cells; assay type: cell-based
ErbB2 mRNA = ErbB2 mRNA by RT-PCR and qRT-PCR in A2780 cells; assay type: cell-based, human
From the text: as §3, §4

ErbB2 protein = test: Total and phosphorylated ErbB2 protein by Western blot in A2780 cells; assay type: cell-based
Description: (§5) Cells plated in culture media containing 5% fetal calf serum at a density of 2.6×10^5 (SKOV3) or 6×10^5 (A2780) in 60 mm dishes (Corning, Corning, N.Y.) were treated with FASN inhibitor C75, with small-molecule ErbB RTK inhibitors (RTKIs), with the MEK1/2 antagonist U0126 or with the PI3K inhibitor LY294002 for the indicated times and at various concentrations. In some experiments cells were stimulated for 5 or 10 min with 100 ng/ml EGF (Sigma) before lysis in RIPA buffer (Grunt et al., Biochem Biophys Res Commun 329:1253-1259, 2005). Proteins (20 μg/lane) were subjected to SDS-PAGE, blotted onto PVDF membranes and immunostained (see Grunt, ibid) using the following antibodies: 2 μg/ml goat anti-pEGFR(Tyr1173) (sc-12351), 1 μg/ml rabbit anti-ErbB2 (C-18) (sc-284), 1 μg/ml rabbit anti-pErbB2(Tyr1248) (sc-12352-R) (all from Santa Cruz Biotechnology Inc., Santa Cruz, Calif.), rabbit anti-EGFR 1:1,000 (2232), rabbit anti-AKT 1:1,000 (9272), rabbit anti-pAKT(Ser473) 1:1,000 (9271), rabbit anti-pAKT(Thr308) 1:1,000 (9275), rabbit anti-pERK1/2(Thr202/Tyr204) 1:1,000 (9101) (all from Cell Signaling Technology), rabbit anti-ERK1/2 1:3,000 (06-182, Upstate Biotechnology Inc., Lake Placid, N.Y.), 0.5 μg/ml mouse monoclonal anti-FASN (610963, BD Biosciences, San Jose, Calif.), or 0.67 μg/ml goat anti-human actin (1-19, sc-1616, Santa Cruz Biotechnology). Secondary antibodies were peroxidase-tagged donkey-anti-rabbit IgG (V795A, Promega, Madison, Wis.) or donkey-anti-goat IgG (sc-2020, Santa Cruz Biotechnology) at 1:15,000, respectively, or chicken anti-mouse IgG (sc-2954, Santa Cruz Biotechnology) at 1:10,000. Detection was performed by enhanced chemiluminescence.

FASN mRNA [5] = test: FASN mRNA levels in SKOV3 cells; assay type: cell-based, human
From the text: RNA was extracted from the cells using TRI-REAGENT™ (Molecular Research Center, Cincinnati, Ohio) and subjected to reverse transcription—polymerase chain reaction (“RT-PCR”) using the TITAN ONE TUBE RT-PCR KIT™ system (Hoffmann-La Roche). Primers were: EGFR: 5′-[…]-3′ (SEQ ID NO:1) (forward, E1S) 5′-[…]-3′ (SEQ ID NO:2) (reverse, E1A); ErbB-2: 5′-[…]-3′ (SEQ ID NO:3) (forward, E2S2), 5′-[…]-3′ (SEQ ID NO:4) (reverse, E2A2); GAPDH: 5′-[…]-3′ (SEQ ID NO:5) (forward, GAPDH3S), 5′-[…]-3′ (SEQ ID NO:6) (reverse, GAPDH3A). Conditions for reverse transcription and amplification of the EGFR coding sequence were: 50° C., 30 minutes; 94° C., 2 minutes; 10 cycles (94° C., 30 seconds; 64.9° C., 30 seconds; 68° C., 90 seconds); 30 cycles (94° C., 30 seconds; 64.9° C., 30 seconds; 68° C., 90 seconds +5 seconds autoextension) and 68° C., 7 minutes. […]
as §4

FASN protein [6] = test: FASN protein levels by Western blotting in SKOV3 cells; assay type: cell-based
Description: as §5, with “Secondary antibodies were peroxidase-tagged donkey-anti-rabbit IgG (V795A, Promega, Madison, Wis.) or donkey-anti-goat IgG (sc-2020, Santa Cruz Biotechnology) at 1:15,000, respectively, or chicken anti-mouse IgG (sc-2954, Santa Cruz Biotechnology) at 1:10,000. Detection was performed by enhanced chemiluminescence.” left out

Molecule: CCOc1cc2ncc(C#N)c(Nc3ccc(F)c(Cl)c3)c2cc1NC(=O)C=CCN(C)C [EKB-569, 4-Dimethylamino-but-2-enoic acid [4-(3-chloro-4-fluoro-phenylamino)-3-cyano-7-ethoxy-quinolin-6-yl]-amide]
- in vitro growth inhibition (in words) [1]: growth inhibitory activity
- IC50 ([1]; Homo sapiens, 72 h, A2780 OCC, each individual inhibitor, 50% reduction of cell growth, three days, n = 3-5, read-out: IC50 (μM) Mean +/− SD): 5.14 µM
- in vitro growth inhibition (in words) [2]: growth inhibitory activity
- FASN mRNA expression, effect in words (FASN mRNA [3]): represses
- FASN mRNA expression, effect in words (FASN mRNA [3]; listed as pelitinib): abrogated
- FASN protein expression, effect in words (FASN protein [4]): represses
- FASN protein expression, effect in words (FASN protein [4]; listed as pelitinib): abrogated
- EGFR mRNA, effect in words (EGFR mRNA): weak dose-dependent repression
- EGFR mRNA, effect in words (EGFR mRNA; listed as pelitinib): dose-dependent down-regulation
- EGFR total protein, effect in words (EGFR protein): abolishes
- EGFR tyrosine phosphorylation (activity), effect in words (EGFR protein): dose-dependent reduction
- EGFR total protein, effect in words (EGFR protein; listed as pelitinib): dose-dependent down-regulation
- EGFR tyrosine phosphorylation (activity), effect in words (EGFR protein; listed as pelitinib): completely abrogates
- ErbB2 mRNA, effect in words (ErbB2 mRNA): only weakly depresses
- ErbB2 mRNA, effect in words (ErbB2 mRNA; listed as pelitinib): do not appear to be affected
- phosphorylated ErbB2 (pErbB2), effect in words (ErbB2 protein): abolishes
- total ErbB2 protein, effect in words (ErbB2 protein): abolishes
- phosphorylated ErbB2 (pErbB2), effect in words (ErbB2 protein; listed as pelitinib): abrogated
- total ErbB2 protein, effect in words (ErbB2 protein; listed as pelitinib): abrogated

Molecule: N#CC(=C(/N)Sc1ccccc1N)/C(C#N)=C(\N)Sc1ccccc1N [U0126]
- FASN mRNA levels, effect in words (FASN mRNA [5]): does not affect
- FASN protein levels, effect in words (FASN protein [6]): does not affect

Molecule: C=CC(=O)Nc1cc2c(Nc3ccc(F)c(Cl)c3)ncnc2cc1OCCCN1CCOCC1 [canertinib]
- in vitro growth inhibition (in words) [1]: growth inhibitory activity
- in vitro growth inhibition (in words) [2]: growth inhibitory activity
- FASN mRNA expression, effect in words (FASN mRNA [3]): effect was also seen
- FASN protein expression, effect in words (FASN protein [4]): effect was also seen
- EGFR mRNA, effect in words (EGFR mRNA): does not diminish
- EGFR total protein, effect in words (EGFR protein): does not diminish
- ErbB2 mRNA, effect in words (ErbB2 mRNA): fails to down-regulate
- phosphorylated ErbB2 (pErbB2), effect in words (ErbB2 protein): strongly diminishes
- total ErbB2 protein, effect in words (ErbB2 protein): slightly attenuates

Molecule: C#Cc1cccc(Nc2ncnc3cc(OCCOC)c(OCCOC)cc23)c1 [erlotinib]
- in vitro growth inhibition (in words) [1]: does not significantly inhibit growth
- in vitro growth inhibition (in words) [2]: does not significantly inhibit growth
- FASN mRNA expression, effect in words (FASN mRNA [3]): effect was also seen
- FASN protein expression, effect in words (FASN protein [4]): effect was also seen

B1: matuzumab: Humanized mAb; EGFR (antibody, chains of the INN, looked up, V domains shown)
VH: QVQLVQSGAEVKKPGASVKVSCKASGYTFTSHWMHWVRQAPGQGLEWIGEFNPSNGRTNYNEKFKSKATMTVDTSTNTAYMELSSLRSEDTAVYYCASRDYDYDGRYFDYWGQGTLVTVSS
VL: DIQMTQSPSSLSASVGDRVTITCSASSSVTYMYWYQQKPGKAPKLLIYDTSNLASGVPSRFSGSGSGTDYTFTISSLQPEDIATYYCQQWSSHIFTFGQGTKVEIK
- growth inhibition ([2]; antibody alone at 20 μg/ml): ~10%
